Measurements reported in US9127044B2, “Cyclic depsipeptides” (NOVARTIS AG, priority 2007, dated 2015).

Experiments:
[1] = biological target: T1, Human neutrophil elastase (Homo sapiens, UniProt P08246); test: HNE inhibitory activity in vitro (fluorescence-quenched substrate); assay type: biochemical
T1 construct: purchased Elastin Products Company, Inc. (EPC, Owensville, USA) SE563
T1 sequence (P08246 30-267): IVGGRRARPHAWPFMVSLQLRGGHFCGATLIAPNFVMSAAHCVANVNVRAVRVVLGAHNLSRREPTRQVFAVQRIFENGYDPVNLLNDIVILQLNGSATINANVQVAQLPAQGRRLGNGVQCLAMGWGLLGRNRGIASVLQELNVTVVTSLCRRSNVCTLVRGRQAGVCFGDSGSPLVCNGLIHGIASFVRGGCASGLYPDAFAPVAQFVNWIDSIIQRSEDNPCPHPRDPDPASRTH

[2] = test system: hairless SKH1 mice; test: Test on recovery of skin barrier disruption in mice (TEWL); assay type: in vivo; settings: 10 mM
Method: The procedure was completed when transepidermal water loss (TEWL) achieved ≧40 mg/cm^2/h. TEWL was assessed with a Tewameter TM210 (Courage Khazaka, Cologne, Del.). Immediately after barrier disruption 30 μl the test compound was applied at 10 mM concentration. Control animals were treated similarly with the solvent (ethanol/propylene glycol, 3/7 (v/v)) alone. TEWL was measured before, immediately after, and at 3 hrs after barrier disruption. In each animal, the percentage recovery was calculated using the formula: (1−[TEWL at 3 hrs−base line TEWL]/[TEWL immediately after stripping−base line TEWL])×100%.

[3] = test system: Swine Model of Allergic Contact Dermatitis (ACD); test: Anti-inflammatory activity in swine model of allergic contact dermatitis (ACD), DNFB; assay type: in vivo
Method: Eight days before the elicitation of the ACD, […] of 10% 2,4-dinitrofluorobenzene (DNFB, dissolved in DMSO/acetone/olive oil [1/5/3, v/v/v]) were applied epicutaneously in divided volumes onto the basis of both ears and onto both groins (100 μl/site) for sensitization. The challenge reactions were elicited with 15 μl of DNFB (1.0%) on contralateral test sites (each 7 cm^2 in size) of the shaved dorsolateral back. For treatment, the test compound and the placebo (solvent only) were applied contralaterally to 2 test sites in each animal 0.5 and 6 hrs after the challenge. The test sites were clinically examined 24 hrs after the challenge when inflammation peaked. The changes were scored on a scale from 0 to 4 (Table 15), allowing a combined maximal score of 12 per designated site. Skin reddening was measured reflectometrically using a* values.

CCC(C)[C@@H]1NC(=O)[C@H](Cc2ccc(O)cc2)N(C)C(=O)[C@H](C(C)CC)N2C(=O)C(CC[C@@H]2O)NC(=O)[C@H](CC(C)C)NC(=O)[C@@H](NC(=O)[C@H](CCC(N)=O)NC(=O)C(C)C)[C@@H](C)OC1=O (stereo partly drawn) [formula II]
IC50 [1]: 10 nM
% Recovery in barrier disruption Mean (SD values) ([2]; 30 μl topical, TEWL at 3 hrs, n: 4 animals per group): 72.0 (9.1) %
acceleration of barrier repair compared to repair in mice treated with the solvent alone ([2]; single topical application, 3 hrs after barrier disruption, p<0.05): 57%
A* value (Mean), skin reddening measured reflectometrically ([3]; 1% solution applied 0.5 and 6 hrs after challenge, 24 hrs, n: 8 test sites): 8.6
Clinical score (Mean) ([3]; 1% solution applied 0.5 and 6 hrs after challenge, scored at 24 hrs, maximal score 12, n: 8 test sites): 5.1
Inhibition vs placebo-treated sites, A* value ([3]; Table 16, 1% test compound): 27.0
Inhibition vs placebo-treated sites, clinical score ([3]; Table 16, 1% test compound): 29.9
inhibition of clinical inflammatory changes ([3]; treated twice with 1% solution, p<0.01): 30%
inhibition of measured skin redness ([3]; treated twice with 1% solution, p<0.05): 27%
